Data as given in ChEMBL document CHEMBL2375273, “Design, synthesis and evaluation of tacrine-flurbiprofen-nitrate trihybrids as novel anti-Alzheimer's disease agents” (Bioorg Med Chem, 2013).

How the values were obtained:
Cholinesterase [1] = target: T1, Cholinesterase (Equus caballus, UniProt P81908)
Description: Inhibition of equine serum BChE using acetylcholine as substrate preincubated for 5 mins prior to substrate addition measured after 2 mins by Ellman's method

Acetylcholinesterase [2] = target: T2, Acetylcholinesterase (Electrophorus electricus, UniProt O42275)
Description: Inhibition of electric eel AChE using acetylcholine as substrate preincubated for 5 mins prior to substrate addition measured after 2 mins by Ellman's method

[3] = buffer, pH 7.4, 4 h
Description: Chemical stability of the compound in phosphate buffer assessed as nitrite release after 4 hrs at pH 7.4 by Griess method

Cholinesterase [4] = target: T1, Cholinesterase; experiment: Competitive inhibition of equine serum BChE by Lineweaver Burk reciprocal plot analysis in presence of acetylcholine
Acetylcholinesterase [5] = target: T2, Acetylcholinesterase; experiment: Mixed-type inhibition of electric eel AChE by Lineweaver Burk reciprocal plot analysis in presence of acetylcholine
[6] = Cytotoxicity against Wistar rat primary cortical neurons at 1 uM after 24 hrs by MTT assay; type: cell-based; settings: cerebral cortex neuron

T1 sequence (P81908 whole entry): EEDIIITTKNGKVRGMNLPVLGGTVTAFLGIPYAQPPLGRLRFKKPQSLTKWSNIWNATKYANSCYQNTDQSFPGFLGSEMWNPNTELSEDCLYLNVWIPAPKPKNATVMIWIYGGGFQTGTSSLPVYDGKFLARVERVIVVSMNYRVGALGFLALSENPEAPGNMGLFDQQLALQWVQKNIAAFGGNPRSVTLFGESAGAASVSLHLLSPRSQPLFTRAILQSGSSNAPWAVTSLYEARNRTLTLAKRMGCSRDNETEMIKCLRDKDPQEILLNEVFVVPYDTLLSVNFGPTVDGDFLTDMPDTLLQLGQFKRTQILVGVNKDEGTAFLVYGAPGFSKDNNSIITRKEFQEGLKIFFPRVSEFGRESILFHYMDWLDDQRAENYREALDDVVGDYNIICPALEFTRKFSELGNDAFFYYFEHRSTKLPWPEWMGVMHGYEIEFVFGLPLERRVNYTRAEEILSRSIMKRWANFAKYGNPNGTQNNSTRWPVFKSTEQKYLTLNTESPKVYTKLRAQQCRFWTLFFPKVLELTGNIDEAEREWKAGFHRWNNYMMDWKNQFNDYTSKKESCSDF
T2 sequence (O42275 whole entry): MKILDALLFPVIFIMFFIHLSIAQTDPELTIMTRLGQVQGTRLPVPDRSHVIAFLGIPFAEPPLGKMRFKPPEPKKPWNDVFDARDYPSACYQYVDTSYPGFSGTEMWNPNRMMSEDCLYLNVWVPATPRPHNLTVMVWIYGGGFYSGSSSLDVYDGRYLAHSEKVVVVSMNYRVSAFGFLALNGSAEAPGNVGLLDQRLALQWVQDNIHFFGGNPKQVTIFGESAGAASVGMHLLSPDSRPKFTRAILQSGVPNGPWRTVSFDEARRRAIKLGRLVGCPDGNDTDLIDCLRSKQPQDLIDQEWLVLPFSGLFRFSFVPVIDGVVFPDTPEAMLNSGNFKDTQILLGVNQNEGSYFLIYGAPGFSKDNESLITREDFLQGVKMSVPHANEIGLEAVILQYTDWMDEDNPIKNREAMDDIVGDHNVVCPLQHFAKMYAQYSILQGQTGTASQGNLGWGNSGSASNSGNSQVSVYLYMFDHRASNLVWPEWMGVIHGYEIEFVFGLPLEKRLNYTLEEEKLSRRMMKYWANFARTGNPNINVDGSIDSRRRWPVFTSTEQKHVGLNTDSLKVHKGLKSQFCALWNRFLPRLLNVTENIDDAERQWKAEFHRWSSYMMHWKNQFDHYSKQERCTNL

CC(C(=O)NCCCCCCCCNc1c2c(nc3ccccc13)CCCC2)c1ccc(-c2ccc(OCCCCO[N+](=O)[O-])cc2)c(F)c1 (configuration not stated)
IC50 (Cholinesterase [1]): 1.3 nM
IC50 (Acetylcholinesterase [2]): 70.9 nM
Drug metabolism [3]: 0.36 µg/mL

CC(C(=O)NCCCCCCCCNc1c2c(nc3ccccc13)CCCC2)c1ccc(-c2ccc(OCCCO[N+](=O)[O-])cc2)c(F)c1 (configuration not stated)
IC50 (Cholinesterase [1]): 1.6 nM
IC50 (Acetylcholinesterase [2]): 30.6 nM
Drug metabolism [3]: 0.353 µg/mL

CC(C(=O)NCCCCCCCCNc1c2c(nc3ccccc13)CCCC2)c1ccc(-c2ccc(OCCO[N+](=O)[O-])cc2)c(F)c1 (configuration not stated)
IC50 (Cholinesterase [1]): 1 nM
IC50 (Acetylcholinesterase [2]): 12.5 nM
Drug metabolism [3]: 0.565 µg/mL

CC(C(=O)NCCCCCCCCNc1c2c(nc3ccccc13)CCCC2)c1ccc(-c2ccccc2)c(F)c1 (configuration not stated)
IC50 (Cholinesterase [1]): 2.1 nM
IC50 (Acetylcholinesterase [2]): 34.5 nM

CC(C(=O)NCCCCCCNc1c2c(nc3ccccc13)CCCC2)c1ccc(-c2ccc(OCCCO[N+](=O)[O-])cc2)c(F)c1 (configuration not stated)
IC50 (Cholinesterase [1]): 2.4 nM
IC50 (Acetylcholinesterase [2]): 18.7 nM
Drug metabolism [3]: 0.353 µg/mL

CC(C(=O)NCCCCCCNc1c2c(nc3ccccc13)CCCC2)c1ccc(-c2ccccc2)c(F)c1 (configuration not stated)
IC50 (Cholinesterase [1]): 3.7 nM
IC50 (Acetylcholinesterase [2]): 19.3 nM

CC(C(=O)NCCCCCCNc1c2c(nc3ccccc13)CCCC2)c1ccc(-c2ccc(OCCO[N+](=O)[O-])cc2)c(F)c1 (configuration not stated)
Ki (Cholinesterase [4]): 1.7 nM
Ki (Acetylcholinesterase [5]): 16.1 nM
IC50 (Cholinesterase [1]): 2.5 nM
IC50 (Acetylcholinesterase [2]): 9.1 nM
Drug metabolism [3]: 0.348 µg/mL

CC(C(=O)NCCCCCCCCNc1c2c(nc3ccccc13)CCCC2)c1ccc(-c2ccc(OCCCCCCO[N+](=O)[O-])cc2)c(F)c1 (configuration not stated)
IC50 (Cholinesterase [1]): 1.5 nM
IC50 (Acetylcholinesterase [2]): 226 nM
Drug metabolism [3]: 0.34 µg/mL

O=[N+]([O-])O[C@@H]1CO[C@H]2[C@@H]1OC[C@@H]2O [ISOSORBIDE MONONITRATE]
Drug metabolism [3]: 0.412 µg/mL

CC(C(=O)NCCCCCCNc1c2c(nc3ccccc13)CCCC2)c1ccc(-c2ccc(OCCCCO[N+](=O)[O-])cc2)c(F)c1 (configuration not stated)
IC50 (Cholinesterase [1]): 1.3 nM
IC50 (Acetylcholinesterase [2]): 27.4 nM
Drug metabolism [3]: 0.36 µg/mL

CC(C(=O)NCCCCCCNc1c2c(nc3ccccc13)CCCC2)c1ccc(-c2ccc(OCCCCCCO[N+](=O)[O-])cc2)c(F)c1 (configuration not stated)
Activity [6]: Non-toxic
IC50 (Cholinesterase [1]): 0.6 nM
IC50 (Acetylcholinesterase [2]): 31.1 nM
Drug metabolism [3]: 0.283 µg/mL
